Measurements taken from patent publication US20250304571A1, “BIOLOGICALLY ACTIVE COMPOUNDS AND METHODS THEREOF” (Suzhou Keen Therapeutics Co., Ltd., priority 2022, published 2025).

test system: 786-O (renal cell carcinoma) cells; test: Cell viability (CellTiter Glo) assay, inhibition of 786-O cell proliferation; assay type: cell-based; details: 786-O cells, 72 hours, CellTiter Glo; read-out: IC50, inhibition of 786-O cell proliferation

Row | Structure (SMILES) | IC50 [nM]
1 | CNc1nc(COC(=N)N2CCC[C@@H]2C(F)(F)F)nc2c1C(C)(C)C(=O)N2c1cc(F)c2c(c1)nc(C)n2C(C)C [Compound E32] | < 100
2 | CC1(C)C(=O)N(c2ccc3c(c2)C2(CCO3)CC2)c2nc(COC(=N)N3CCC[C@@H]3C(F)(F)F)nc(NCC(F)(F)F)c21 [Compound E66] | < 100

same assay, conditions: Homo sapiens, 786-0, 72 h, read-out: IC50, inhibition of 786-O cell proliferation

Row | Structure (SMILES) | IC50 [nM]
3 | C[C@@H]1CN(c2ccc(N3C(=O)C(C)(C)c4c(NCC(F)F)nc(COC(=N)N5CCC[C@@H]5C(F)(F)F)nc43)cc2)C[C@H](C)O1 [Compound E203] | 100 to 500
4 | CC(C)N(CC(F)(F)F)C(=N)OCc1ncc2c(n1)N(c1ccc(OC3CCCCC3)nc1)CCO2 [Compound E126] | 500 to 5000

same assay, conditions: Homo sapiens, 786-0; 786-O cells, 72 hours, CellTiter Glo; read-out: IC50, inhibition of 786-O cell proliferation

Row | Structure (SMILES) | IC50 [nM]
5 | CC(C)N(CC(F)(F)F)C(=N)OCc1ncc2c(n1)N(c1ccccc1Oc1ccccc1)CC21CC1 [Compound E143] | 100 to 500
6 | C[C@@H]1C[C@H](C)CN(c2ncc(N3C(=O)C(C)(C)c4c(N)nc(COC(=N)N5CCC[C@@H]5C(F)(F)F)nc43)cc2F)C1 [Compound E34] | < 100
7 | N=C(OCc1ncc2c(n1)N(c1ccc(Oc3ccccc3)cc1)C(=O)C21CC1)N1CCCCC1C(F)(F)F (centres unmarked) [Compound E12] | 100 to 500
8 | CC1(C)CN(c2ccc(Oc3ccccc3)cc2)c2nc(COC(=N)NC34CC5CC(CC(C5)C3)C4)nc(N)c21 [Compound E3] | 100 to 500
9 | CC1(C)C(=O)N(c2cc(F)c3c(c2)CCCO3)c2nc(COC(=N)N3CCC[C@@H]3C(F)(F)F)nc(NCC(F)(F)F)c21 [Compound E51] | < 100
10 | N=C(OCc1nc(NC2CCC2)c2c(n1)N(c1ccc(N3CCOCC3)cc1)C(=O)C21CCCC1)N1CCC[C@@H]1C(F)(F)F [Compound E91] | < 100
11 | CC#CC(C)(C)N(C)C(=N)OCc1nc(N)c2c(n1)N(c1ccc(N3CCOCC3)cc1)C(=O)C2(C)C [Compound E27] | 500 to 5000
12 | CC(C)N(CC(F)(F)F)C(=N)OCc1ncc2c(n1)N(c1ccc(C3CCCCC3)nc1)C(=O)C21CC1 [Compound E160] | 500 to 5000
13 | C[C@@H]1CN(c2ccc(N3C(=O)C4(CCC4)c4c(N)nc(COC(=N)N5CCC[C@@H]5C(F)(F)F)nc43)cn2)C[C@H](C)O1 [Compound E33] | < 100
14 | C[C@@H]1CN(c2ccc(N3C(=O)C(C)(C)c4c(NCC(F)(F)F)nc(COC(=N)N5CCC[C@@H]5C(F)(F)F)nc43)cn2)C[C@H](C)O1 [Compound E38] | < 100
15 | CCN(CC(F)(F)F)C(=N)OCc1nc(NC)c2c(n1)N(c1ccc(N3CCOCC3)cc1)C(=O)C2(C)C [Compound E109] | < 100
16 | CNc1nc(COC(=N)N2CCC[C@@H]2C(F)(F)F)nc2c(-c3ccc(N4C[C@@H](C)O[C@@H](C)C4)nc3)coc12 [Compound E194] | 100 to 500
17 | CCN(CC)c1ncc(N2C(=O)C3(CCCC3)c3c(N)nc(COC(=N)N4CCC[C@@H]4C(F)(F)F)nc32)cn1 [Compound E75] | < 100
18 | N=C(OCc1nc2c(c(C(F)(F)F)n1)C1(CCCC1)C(=O)N2c1ccc(N2CCOCC2)cc1)N1CCC[C@@H]1C(F)(F)F [Compound E202] | 500 to 5000
19 | C=CCNc1nc(COC(=N)N2CCC[C@@H]2C(F)(F)F)nc2c1C(C)(C)C(=O)N2c1ccc(N2CCOCC2)cc1 [Compound E56] | < 100
20 | CC1(C)C(=O)N(c2cnc(N3CCC(F)(F)CC3)nc2)c2nc(COC(=N)N3CCC[C@@H]3C(F)(F)F)nc(NC3CC3)c21 [Compound E59] | < 100
21 | C#CCN(CC(F)(F)F)C(=N)OCc1nc(N)c2c(n1)N(c1ccc(N3C[C@@H](C)O[C@@H](C)C3)nc1)C(=O)C2(C)C [Compound E192] | 100 to 500
22 | CNc1nc(COC(=N)N2CCCC2C(F)(F)F)nc2c1C(C)(C)CN2c1ccc(N2CCOCC2)cc1OC (centres unmarked) [Compound E15] | < 100
23 | CNc1nc(COC(=N)N2CCCC2C(F)(F)F)nc2c1C(C)(C)C(=O)N2c1ccc(N2C[C@@H](C)O[C@@H](C)C2)nc1 (some centres unmarked) [Compound E113] | < 100
24 | N=C(OCc1nc(N)c2c(n1)N(c1cnc(C(F)(F)F)nc1)C(=O)C21CCCC1)N1CCC[C@@H]1C(F)(F)F [Compound E90] | 100 to 500

Row | Structure (SMILES) | IC50 [nM]
25 | CNc1nc(COC(=N)N2CCC[C@@H]2C(F)(F)F)nc2c1C(C)(C)C(=O)N2c1ccc(N2C[C@H](C)C[C@H](C)C2)c(F)c1 [Compound E39] | < 100
26 | N=C(OCc1nc(N)c2c(n1)N(c1cnc(N3CC4CC3CO4)nc1)C(=O)C21CCCC1)N1CCC[C@@H]1C(F)(F)F (some centres unmarked) [Compound E98] | 500 to 5000
27 | N=C(OCc1ncc2c(n1)N(c1ccc(OC3CCOCC3)nc1)CC21CC1)N1CC(F)(F)C1 [Compound E146] | 500 to 5000
28 | [2H]C([2H])([2H])Nc1nc(COC(=N)N2CCC[C@@H]2C(F)(F)F)nc2c1C(C)(C)C(=O)N2c1ccc(N2C[C@@H](C)O[C@@H](C)C2)nc1 [Compound E187, (7-(6-((2S,6R)-2,6-Dimethylmorpholino)pyridin-3-yl)-5,5-dimethyl-4-((methyl-d3)amino)-6-oxo-6,7-dihydro-5H-pyrrolo[2,3-d]pyrimidin-2-yl)methyl (R)-2-(trifluoromethyl)pyrrolidine-1-carbimidate] | 100 to 500
29 | CNc1nc(COC(=N)N2CCC[C@H]2C(F)(F)F)nc2c1C1(CCCC1)C(=O)N2c1cnc(N2C[C@@H](C)O[C@@H](C)C2)nc1 (relative stereo) [Compound E103] | 100 to 500
30 | CC1(NC(=N)OCc2nc(N)nc(Nc3ccc(Oc4ccccc4)cc3)n2)CCCCC1 [Compound F15] | 100 to 500
31 | C[C@@H]1CN(c2ccc(N3C(=O)C(C)(C)c4c(NCC(F)(F)F)nc(COC(=N)N5CCC[C@@H]5C(F)(F)F)nc43)cc2F)C[C@H](C)O1 [Compound E50] | < 100
32 | CNc1nc(COC(=N)N2CCC[C@@H]2C(F)(F)F)nc2c1C1(CCCC1)C(=O)N2c1cnc(N2CC(F)(F)C2)nc1 [Compound E86] | < 100
33 | C[C@@H]1CN(c2ccc(N3C(=O)C(C)(C)c4c(N)nc(COC(=N)N5CC(F)(F)C(F)(F)C5)nc43)cn2)C[C@H](C)O1 [Compound E195] | 100 to 500
34 | CC(C)N(CC(F)(F)F)C(=N)OCc1nc(N)c2c(n1)N(c1ccc(OC3CCCCC3)nc1)C(=O)C2(C)C [Compound E167] | < 100
35 | C[C@@H]1C[C@H](C)CN(c2ccc(N3C(=O)C(C)(C)c4c(N)nc(COC(=N)N5CCC[C@@H]5C(F)(F)F)nc43)cc2F)C1 [Compound E35] | < 100
36 | CC(C)Oc1cnc(COC(=N)N(CC(F)(F)F)C(C)C)nc1Nc1ccc(Oc2ccccc2)cc1 [Compound E131] | 100 to 500
37 | CC1(NC(=N)OCc2nc(N)nc(Nc3ccc(Oc4ccccc4)cc3)n2)CC1 [Compound F28] | 100 to 500
38 | CC1(C)CN(c2ccc(Oc3ccccc3)cc2)c2nc(COC(=N)N3CCCC34CCOCC4)ncc21 [Compound E121] | 500 to 5000
39 | CCN(CC(F)(F)F)C(=N)OCc1cc(Nc2ccc(Oc3ccccc3)cc2)ncn1 [Compound F39] | 500 to 5000
40 | N=C(OCc1nc(N)nc(Nc2ccc(Oc3ccccc3)cc2)n1)N1CCCO1 [Compound F44] | 100 to 500
41 | C[C@@H]1CN(c2ncc(N3C(=O)C(C)(C)c4c(N)nc(COC(=N)N5CCC[C@@H]5C(F)(F)F)nc43)cc2F)C[C@H](C)O1 [Compound E37] | < 100
42 | N=C(OCc1nc(NC2CC2)c2c(n1)N(c1cnc(N3CCCCC3)nc1)C(=O)C21CCCC1)N1CCC[C@@H]1C(F)(F)F [Compound E204] | < 100
43 | CNc1nc(COC(=N)N2CCCC2C(F)(F)F)nc2c1C(C)(C)C(=O)N2c1ccc(N2C[C@@H](C)O[C@@H](C)C2)cc1 (some centres unmarked) [Compound E23] | < 100
44 | CCN(CC(F)(F)F)C(=N)OCc1nccc(Nc2ccc(Oc3ccccc3)cc2)n1 [Compound F40] | 100 to 500
